Measured values taken from paper PMC5666424, “Marine-Derived 2-Aminoimidazolone Alkaloids. Leucettamine B-Related Polyandrocarpamines Inhibit Mammalian and Protozoan DYRK & CLK Kinases” (Marine Drugs, 2017).

How the values were obtained:
Test in all cases: KinomeScan
Type in all cases: binding
Settings in all cases: 1 μM
NEK11 = molecular target: T1, NEK11 (Homo sapiens, UniProt Q8NG66)
T1 construct: purchased DiscoverX (KINOMEscan)

FES = molecular target: T2, FES (Homo sapiens, UniProt P07332)
T2 construct: purchased DiscoverX (KINOMEscan)

DYRK2 = molecular target: T3, DYRK2 (Homo sapiens, UniProt Q92630)
T3 sequence (Q92630 1-601): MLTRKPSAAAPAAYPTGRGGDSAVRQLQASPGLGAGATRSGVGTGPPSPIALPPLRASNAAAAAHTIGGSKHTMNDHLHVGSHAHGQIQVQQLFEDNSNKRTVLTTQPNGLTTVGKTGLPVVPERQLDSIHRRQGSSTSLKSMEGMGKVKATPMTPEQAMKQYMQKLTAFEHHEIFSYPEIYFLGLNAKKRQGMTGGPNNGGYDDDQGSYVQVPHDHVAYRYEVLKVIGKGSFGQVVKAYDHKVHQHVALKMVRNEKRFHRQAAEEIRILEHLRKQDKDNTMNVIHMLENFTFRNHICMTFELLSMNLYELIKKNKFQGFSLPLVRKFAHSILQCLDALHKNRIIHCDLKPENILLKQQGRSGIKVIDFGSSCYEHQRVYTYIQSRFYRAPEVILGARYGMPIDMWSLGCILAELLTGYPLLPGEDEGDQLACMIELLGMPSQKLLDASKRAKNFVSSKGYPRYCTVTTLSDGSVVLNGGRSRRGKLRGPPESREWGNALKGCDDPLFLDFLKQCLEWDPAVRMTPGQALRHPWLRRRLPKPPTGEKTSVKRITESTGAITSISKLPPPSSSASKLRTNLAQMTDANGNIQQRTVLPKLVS

FAK = molecular target: T4, FAK (Homo sapiens, UniProt Q05397)
T4 construct: purchased DiscoverX (KINOMEscan)

DCAMKL2 = molecular target: T5, DCAMKL2 (Homo sapiens, UniProt Q8N568)
T5 construct: purchased DiscoverX (KINOMEscan)
T5 sequence (Q8N568 whole entry): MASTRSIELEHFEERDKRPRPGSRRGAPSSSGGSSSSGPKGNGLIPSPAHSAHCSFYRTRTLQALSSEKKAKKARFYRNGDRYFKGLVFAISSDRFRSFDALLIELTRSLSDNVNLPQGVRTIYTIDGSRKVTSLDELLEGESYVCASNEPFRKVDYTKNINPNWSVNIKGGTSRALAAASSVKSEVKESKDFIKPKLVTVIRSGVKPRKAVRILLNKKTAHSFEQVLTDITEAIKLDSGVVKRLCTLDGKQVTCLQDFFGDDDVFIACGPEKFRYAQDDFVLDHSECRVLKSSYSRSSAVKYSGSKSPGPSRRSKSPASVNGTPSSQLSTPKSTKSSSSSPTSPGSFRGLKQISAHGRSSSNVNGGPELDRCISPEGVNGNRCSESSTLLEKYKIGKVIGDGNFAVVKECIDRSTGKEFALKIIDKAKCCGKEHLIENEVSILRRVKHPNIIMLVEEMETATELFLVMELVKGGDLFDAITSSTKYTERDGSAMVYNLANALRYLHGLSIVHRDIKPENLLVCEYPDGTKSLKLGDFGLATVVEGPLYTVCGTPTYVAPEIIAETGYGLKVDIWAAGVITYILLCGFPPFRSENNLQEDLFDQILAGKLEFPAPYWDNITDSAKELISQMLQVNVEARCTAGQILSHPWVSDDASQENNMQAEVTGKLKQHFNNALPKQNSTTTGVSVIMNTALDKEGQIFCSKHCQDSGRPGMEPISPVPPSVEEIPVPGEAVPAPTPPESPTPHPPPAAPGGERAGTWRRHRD

NDR1 = molecular target: T6, NDR1 (Homo sapiens, UniProt Q15208)
T6 construct: purchased DiscoverX (KINOMEscan)

DCAMKL1 = molecular target: T7, DCAMKL1 (Homo sapiens, UniProt O15075)
T7 construct: purchased DiscoverX (KINOMEscan)
T7 sequence (O15075 whole entry): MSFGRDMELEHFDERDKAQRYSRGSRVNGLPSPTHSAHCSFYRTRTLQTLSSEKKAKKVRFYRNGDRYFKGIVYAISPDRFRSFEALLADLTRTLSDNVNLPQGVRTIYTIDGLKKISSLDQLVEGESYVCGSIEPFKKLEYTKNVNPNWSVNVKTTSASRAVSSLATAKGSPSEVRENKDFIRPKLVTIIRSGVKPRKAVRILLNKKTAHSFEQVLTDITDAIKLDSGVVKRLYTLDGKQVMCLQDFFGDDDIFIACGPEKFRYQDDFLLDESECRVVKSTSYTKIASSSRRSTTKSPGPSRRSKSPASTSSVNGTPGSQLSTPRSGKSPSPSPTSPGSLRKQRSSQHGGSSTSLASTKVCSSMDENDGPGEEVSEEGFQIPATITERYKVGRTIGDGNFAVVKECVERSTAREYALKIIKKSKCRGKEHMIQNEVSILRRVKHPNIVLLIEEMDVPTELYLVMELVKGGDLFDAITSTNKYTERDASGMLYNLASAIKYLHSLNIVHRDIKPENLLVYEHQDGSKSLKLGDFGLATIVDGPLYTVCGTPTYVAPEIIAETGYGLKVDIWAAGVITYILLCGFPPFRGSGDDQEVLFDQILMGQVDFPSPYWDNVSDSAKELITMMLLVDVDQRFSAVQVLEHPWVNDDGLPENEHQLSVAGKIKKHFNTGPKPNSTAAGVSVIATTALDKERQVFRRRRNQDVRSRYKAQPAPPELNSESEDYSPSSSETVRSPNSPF

MEK2 = molecular target: T8, MEK2 (Homo sapiens, UniProt P36507)
T8 construct: purchased DiscoverX (KINOMEscan)

KIT(V559D,V654A) = molecular target: T9, KIT(V559D,V654A) (Homo sapiens, UniProt P10721, V559D/V654A)
T9 construct: purchased DiscoverX (KINOMEscan)

BLK = molecular target: T10, BLK (Homo sapiens, UniProt P51451)
T10 construct: purchased DiscoverX (KINOMEscan)

BTK = molecular target: T11, BTK (Homo sapiens, UniProt Q06187)
T11 construct: purchased DiscoverX (KINOMEscan)

YANK1 = molecular target: T12, YANK1 (Homo sapiens, UniProt Q8WU08)
T12 construct: purchased DiscoverX (KINOMEscan)

AURKC = molecular target: T13, AURKC (Homo sapiens, UniProt Q9UQB9)
T13 construct: purchased DiscoverX (KINOMEscan)

STK16 = molecular target: T14, STK16 (Homo sapiens, UniProt O75716)
T14 construct: purchased DiscoverX (KINOMEscan)

TNNI3K = molecular target: T15, TNNI3K (Homo sapiens, UniProt Q59H18)
T15 construct: purchased DiscoverX (KINOMEscan)

MAP4K5 = molecular target: T16, MAP4K5 (Homo sapiens, UniProt Q9Y4K4)
T16 construct: purchased DiscoverX (KINOMEscan)

PIM2 = molecular target: T17, PIM2 (Homo sapiens, UniProt Q9P1W9)
T17 construct: purchased DiscoveRx (KinomeScan, San Diego, CA, USA)
T17 sequence (Q9P1W9 whole entry): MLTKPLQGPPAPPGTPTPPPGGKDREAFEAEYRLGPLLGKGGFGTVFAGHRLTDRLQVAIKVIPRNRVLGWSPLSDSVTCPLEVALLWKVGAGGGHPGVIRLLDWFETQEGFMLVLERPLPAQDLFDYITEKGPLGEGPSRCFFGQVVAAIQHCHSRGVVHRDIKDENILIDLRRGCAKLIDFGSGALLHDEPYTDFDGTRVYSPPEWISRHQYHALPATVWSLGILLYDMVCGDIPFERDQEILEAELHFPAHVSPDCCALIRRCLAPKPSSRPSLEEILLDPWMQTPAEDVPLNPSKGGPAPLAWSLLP

TAOK1 = molecular target: T18, TAOK1 (Homo sapiens, UniProt Q7L7X3)
T18 construct: purchased DiscoverX (KINOMEscan)

ERK1 = molecular target: T19, ERK1 (Homo sapiens, UniProt P27361)
T19 construct: purchased DiscoverX (KINOMEscan)

YANK3 = molecular target: T20, YANK3 (Homo sapiens, UniProt Q86UX6)
T20 construct: purchased DiscoverX (KINOMEscan)

NEK6 = molecular target: T21, NEK6 (Homo sapiens, UniProt Q9HC98)
T21 construct: purchased DiscoverX (KINOMEscan)
T21 sequence (Q9HC98 whole entry): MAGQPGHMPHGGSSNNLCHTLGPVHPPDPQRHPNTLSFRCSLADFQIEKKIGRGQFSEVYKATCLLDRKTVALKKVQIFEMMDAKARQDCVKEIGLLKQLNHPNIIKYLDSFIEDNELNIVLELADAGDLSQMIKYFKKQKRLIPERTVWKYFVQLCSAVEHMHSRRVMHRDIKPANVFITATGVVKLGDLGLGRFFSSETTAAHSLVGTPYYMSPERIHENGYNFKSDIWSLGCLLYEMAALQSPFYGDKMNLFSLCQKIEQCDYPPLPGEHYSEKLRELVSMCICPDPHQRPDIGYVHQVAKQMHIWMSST

EPHA3 = molecular target: T22, EPHA3 (Homo sapiens, UniProt P29320)
T22 construct: purchased DiscoverX (KINOMEscan)
T22 sequence (P29320 21-983): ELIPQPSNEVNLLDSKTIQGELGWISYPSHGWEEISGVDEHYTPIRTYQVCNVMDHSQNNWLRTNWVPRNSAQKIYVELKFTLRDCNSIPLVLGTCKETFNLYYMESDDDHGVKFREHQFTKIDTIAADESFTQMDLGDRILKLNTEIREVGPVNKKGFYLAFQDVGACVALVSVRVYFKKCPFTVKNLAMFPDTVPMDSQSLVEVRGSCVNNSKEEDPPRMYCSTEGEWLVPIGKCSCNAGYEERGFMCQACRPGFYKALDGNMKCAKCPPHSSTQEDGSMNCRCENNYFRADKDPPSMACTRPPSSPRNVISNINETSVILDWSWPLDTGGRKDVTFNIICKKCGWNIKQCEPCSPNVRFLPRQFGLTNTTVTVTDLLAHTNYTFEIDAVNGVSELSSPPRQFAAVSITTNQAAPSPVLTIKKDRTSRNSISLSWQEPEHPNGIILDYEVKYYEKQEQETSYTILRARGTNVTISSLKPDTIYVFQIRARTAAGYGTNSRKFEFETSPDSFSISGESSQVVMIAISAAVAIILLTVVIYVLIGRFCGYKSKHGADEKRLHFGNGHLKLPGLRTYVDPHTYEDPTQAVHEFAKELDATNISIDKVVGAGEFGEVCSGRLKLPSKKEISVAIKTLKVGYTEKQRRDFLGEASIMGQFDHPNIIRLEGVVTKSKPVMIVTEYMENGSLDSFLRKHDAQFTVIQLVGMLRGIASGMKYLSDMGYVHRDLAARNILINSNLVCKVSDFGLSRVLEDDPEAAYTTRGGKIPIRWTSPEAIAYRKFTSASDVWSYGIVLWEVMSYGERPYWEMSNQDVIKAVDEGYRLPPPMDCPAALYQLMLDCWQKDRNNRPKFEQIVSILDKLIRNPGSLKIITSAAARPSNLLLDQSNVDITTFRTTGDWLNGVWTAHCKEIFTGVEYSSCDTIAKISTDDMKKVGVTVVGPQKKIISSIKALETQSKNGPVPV

SNRK = molecular target: T23, SNRK (Homo sapiens, UniProt Q9NRH2)
T23 construct: purchased DiscoverX (KINOMEscan)

SRPK3 = molecular target: T24, SRPK3 (Homo sapiens, UniProt Q9UPE1)
T24 construct: purchased DiscoverX (KINOMEscan)

MINK = molecular target: T25, MINK (Homo sapiens, UniProt Q8N4C8)
T25 construct: purchased DiscoverX (KINOMEscan)
T25 sequence (Q8N4C8 whole entry): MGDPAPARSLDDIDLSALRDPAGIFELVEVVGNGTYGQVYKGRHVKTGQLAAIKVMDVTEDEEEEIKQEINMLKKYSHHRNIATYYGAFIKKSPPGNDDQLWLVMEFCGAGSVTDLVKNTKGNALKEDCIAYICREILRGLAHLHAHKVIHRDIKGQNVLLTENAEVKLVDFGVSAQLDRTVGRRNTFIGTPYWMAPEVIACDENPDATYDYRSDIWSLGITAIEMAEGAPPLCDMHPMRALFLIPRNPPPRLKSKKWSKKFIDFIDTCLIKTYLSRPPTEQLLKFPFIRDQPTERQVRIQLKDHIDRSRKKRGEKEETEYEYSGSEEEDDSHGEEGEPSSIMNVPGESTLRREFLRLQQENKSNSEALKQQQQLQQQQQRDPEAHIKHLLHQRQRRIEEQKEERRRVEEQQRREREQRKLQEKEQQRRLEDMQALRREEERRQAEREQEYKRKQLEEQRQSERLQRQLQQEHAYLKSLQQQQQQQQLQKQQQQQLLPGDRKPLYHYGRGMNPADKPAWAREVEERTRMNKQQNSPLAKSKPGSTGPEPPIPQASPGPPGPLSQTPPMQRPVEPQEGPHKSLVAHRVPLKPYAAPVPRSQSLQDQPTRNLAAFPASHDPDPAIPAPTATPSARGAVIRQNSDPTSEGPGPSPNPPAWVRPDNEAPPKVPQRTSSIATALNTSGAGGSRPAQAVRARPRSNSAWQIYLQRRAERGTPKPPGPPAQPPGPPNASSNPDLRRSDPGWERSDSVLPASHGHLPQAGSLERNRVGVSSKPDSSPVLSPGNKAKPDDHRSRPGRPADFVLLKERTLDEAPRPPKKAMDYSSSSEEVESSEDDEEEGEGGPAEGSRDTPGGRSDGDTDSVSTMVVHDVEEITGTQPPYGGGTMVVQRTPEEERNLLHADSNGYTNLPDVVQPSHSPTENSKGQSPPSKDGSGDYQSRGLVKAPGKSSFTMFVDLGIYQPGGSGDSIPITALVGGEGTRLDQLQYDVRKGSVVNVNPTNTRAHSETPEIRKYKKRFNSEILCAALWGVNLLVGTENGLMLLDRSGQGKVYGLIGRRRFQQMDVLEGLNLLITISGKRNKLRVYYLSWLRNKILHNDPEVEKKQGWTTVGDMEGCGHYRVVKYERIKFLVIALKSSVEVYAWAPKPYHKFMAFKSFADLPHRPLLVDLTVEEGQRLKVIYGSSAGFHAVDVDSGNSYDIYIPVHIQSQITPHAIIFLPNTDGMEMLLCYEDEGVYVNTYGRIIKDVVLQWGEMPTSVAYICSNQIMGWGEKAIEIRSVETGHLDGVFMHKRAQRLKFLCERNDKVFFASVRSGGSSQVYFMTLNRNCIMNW

CAMKK2 = molecular target: T26, CAMKK2 (Homo sapiens, UniProt Q96RR4)
T26 construct: purchased DiscoverX (KINOMEscan)
T26 sequence (Q96RR4 whole entry): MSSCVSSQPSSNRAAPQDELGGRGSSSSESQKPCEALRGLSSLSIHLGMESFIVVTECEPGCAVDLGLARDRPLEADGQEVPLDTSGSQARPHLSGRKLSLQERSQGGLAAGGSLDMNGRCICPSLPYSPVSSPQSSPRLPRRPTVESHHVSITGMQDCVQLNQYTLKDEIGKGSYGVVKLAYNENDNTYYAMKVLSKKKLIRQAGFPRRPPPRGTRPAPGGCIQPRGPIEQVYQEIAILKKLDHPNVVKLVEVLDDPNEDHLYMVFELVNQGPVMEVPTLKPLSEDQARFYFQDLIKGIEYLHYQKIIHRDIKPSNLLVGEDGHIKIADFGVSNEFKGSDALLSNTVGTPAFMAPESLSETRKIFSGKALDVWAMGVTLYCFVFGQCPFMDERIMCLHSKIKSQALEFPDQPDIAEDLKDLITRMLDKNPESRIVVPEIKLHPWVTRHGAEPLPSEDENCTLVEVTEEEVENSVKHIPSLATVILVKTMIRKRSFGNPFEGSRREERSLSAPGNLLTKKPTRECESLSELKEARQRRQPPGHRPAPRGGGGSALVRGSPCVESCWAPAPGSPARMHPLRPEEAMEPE

MST1R = molecular target: T27, MST1R (Homo sapiens, UniProt Q04912)
T27 construct: purchased DiscoverX (KINOMEscan)

[1] = molecular target: T28, TYK2(JH1domain-catalytic) (Homo sapiens, UniProt P29597)
T28 construct: TYK2(JH1domain-catalytic); purchased DiscoverX (KINOMEscan)

IKK-alpha = molecular target: T29, IKK-alpha (Homo sapiens, UniProt O15111)
T29 construct: purchased DiscoverX (KINOMEscan)

**Q.** Which results are given for COc1cc(/C=C2\N=C(N)NC2=O)ccc1O [Polyandrocarpamine A]?
**A.** Score (NEK11): 100; Score (FES): 96; Score (DYRK2): 24; Score (FAK): 94; Score (DCAMKL2): 100; Score (NDR1): 100; Score (DCAMKL1): 98; Score (MEK2): 100; Score (KIT(V559D,V654A)): 100; Score (BLK): 100; Score (BTK): 100; Score (YANK1): 100; Score (AURKC): 99; Score (STK16): 100; Score (TNNI3K): 98; Score (MAP4K5): 100; Score (PIM2): 21; Score (TAOK1): 76; Score (ERK1): 100; Score (YANK3): 100; Score (NEK6): 100; Score (EPHA3): 87; Score (SNRK): 100; Score (SRPK3): 100; Score (MINK): 100; Score (CAMKK2): 94; Score (MST1R): 100; Score [1]: 100; Score (IKK-alpha): 100
